# Assay results: patent US20260097047A1, “Small molecule inhibitors of the ribosome biogenesis factor NVL2” (Board of Regents, The University of Texas System, priority 2023, published 2026)
# Read-outs that look alike come from different tables or passages of the source.
# Experiments:
# [1] = Toxicity read-outs in efficacy study (body weight, blood counts, blood chemistry); assay type: in vivo; conditions: 35 mg/kg IP twice a day for 21 days
# Procedure: Having established the kinetics of MM927 mediated NVL inhibition in xenograft tumors, we administered 35 mg/kg MM927 IP twice a day for 21 days to mice harboring tumors derived from either HCT116 NVL wild type or NVL^R403W cells. […] Taken together, we concluded that the potent, and bioavailable analog MM927 reduces tumor growth in mouse xenografts by inhibiting NVL without toxicity.
# Efficacy study: Five million parental HCT116 cells or HCT116 NVL^R403W in a volume of 0.1 mL were implanted in the right flank. Tumor volumes were measured every 2 to 4 days with calipers. Volume is calculated as [(L*W^2)*3.14]/6. When volumes reached ˜110 mm^3, treatment was started with 35 mg/kg MM927 or vehicle control (0.2 mL/mouse) twice a day for 21 days. Mice were euthanized at the end of the 21-day treatment period or when any tumor reached 2 cm in its largest diameter, in agreement with the approved animal protocol. At the end of treatment, blood and tumor tissue were collected for pharmacokinetic analysis, measurement of complete blood counts, and blood chemistry measurements as described. Serum alanine transaminase and blood urea nitrogen were analyzed using VITROS MicroSlide technology.
# HCT116 cells = experiment: Cell viability assay (CellTiter-Glo, 72 hours) in HCT116 human colorectal cancer cells; assay type: cell-based; conditions: for IC50: Homo sapiens, HCT-116
# Method in brief: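 2,000 cells/well adhered overnight, then compound added by digital dispenser with DMSO normalized to 0.5%. Viability read after 72 h at 37 °C by ATP-based CellTiter-Glo luminescence. IC50 from ten-point curves baseline-corrected to vehicle, five-parameter asymmetric least-squares fit.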
# HCT116 NVL^P307T cells = experiment: Cell viability in compound-resistant HCT116 NVL^P307T cells; assay type: cell-based, human; conditions: for IC50: Homo sapiens, HCT-116, NVL^P307T
# Text: Assessing the ability of NVL2 inhibitors to selectively kill WT versus NVL2^mut HCT116, block ribosome biogenesis and induce p53. We evaluate analogs in the colorectal cancer cell line HCT116 and already available compound-resistant clones. One clone has a mutation in the compound binding site (NVL2^R403W) and another clone (NVL2^P307T) has a mutation distant from the binding site that confers resistance through an unknown effect. Based on our results, analogs that kill HCT116 cells via NVL2 inhibition (on-target) have reduced potency in compound-resistant HCT116 mutant clones. Our analogs have been counter-screened against the NVL2 compound-resistant mutant clones with fold resistance range between 10-100 fold (most analogs 20-50 fold). This counter screen provides a strategy for identifying off-target toxins.
# From whole exome sequencing, we identified variants that were acquired during IAA-induced mutagenesis with the hypothesis that genes related to resistance will be mutated in multiple clones. Two genes contained acquired variants in at least 3 of the 15 selected clones: TERT, mutated in 3 of 15 clones, and NVL, mutated in all 15 clones. […] In sum, 57 out of 59 unique clones harbored NVL mutations. The majority of mutations clustered within the D1 AAA+ ATPase domain and frequently affecting the same codons. To test whether these mutations are sufficient for MM017 resistance, we used CRISPR-Cas9 to knock-in two of the most resistant mutations (NVL^P307T, NVL^R403W) and a mutation with intermediate resistance (NVL^H304R). Transfection of cells with sgRNAs targeting these NVL residues in addition to a mutation-encoding repair template yielded an increased rate of resistance when compared to mock treatments.
# (§1) HCT116 cells were transfected with TransIT-LT (Mirus #MIR2304) according to manufacturer's protocol with a guide RNA (either mock or NVL targeting) in the px330 vector (Addgene, #42230), and 10 nM single stranded deoxyoligonucleotide encoding a specific NVL mutation (see below for specific sequences). 72 hours after transfection, cells were selected by MM017 treatment. The resulting cells were evaluated by cresyl violet staining or collected and the relevant NVL mutations were analyzed by either amplicon or sanger sequencing.
# Cell viability assay: In 96-well assay plates (Corning #2903), 2,000 cells were plated per well in 100 μL of medium and allowed to adhere overnight. The next day, compounds suspended in DMSO were dispensed to the assayed wells using a D300e Digital Dispenser (Tecan). All wells were normalized to 0.5% DMSO. 72 hours after incubation at 37° C. in 5% CO2, cell viability was assayed using an ATP-based luminescent viability assay, CellTiter-Glo (Promega #G8462). Substrate was mixed 1:1 with phosphate-buffered saline (PBS) supplemented with 1% Triton X-100, and 40 μL of this mixture was added to the assay wells. Plates were shaken on a microplate shaker for 10 minutes at room temperature. Luminescence (CellTiter-Glo) was recorded using a Synergy 2 microplate reader (BioTek). In Prism 9 software (GraphPad), ten-point dose response curves were plotted with baseline-correction to the vehicle control well, and IC50 values were calculated by curve fitting using asymmetric (five parameter), least squares fit.
# mouse NVL = molecular target: T1, mouse NVL (Mus musculus, UniProt Q9DBY8); experiment: Viability of NVL^AID/AID cells relying on ectopic mouse NVL (Ph-IAA); assay type: cell-based; conditions: endogenous NVL degraded with Ph-IAA
# T1 construct: expressed in transfected cells; host or cells: HCT116 NVL^AID/AID cells (human cells, viral infection)
# Text: Next, we investigated whether inhibitors of NVL could inhibit the growth of cell line derived xenografts tumors in mice, and whether systemic inhibition of NVL leads to specific toxicities. […] To test the potency of MM927 against mouse NVL within the same cell type, we ectopically expressed either human or mouse NVL in NVL^AID/AID cells. Treatment with Ph-IAA degrades the endogenous protein so that the cells must rely solely on ectopically expressed NVL. In the mock infected cells, degrading NVL^AID/AID by the addition of Ph-IAA reduced cell viability as expected, and the viability was completely rescued by expression of either ectopic mouse or human NVL.
# HCT116 NVL^H304R cells = experiment: Cell viability in HCT116 NVL^H304R knock-in cells; assay type: cell-based; conditions: Homo sapiens, HCT-116
# Text: From whole exome sequencing, we identified variants that were acquired during IAA-induced mutagenesis with the hypothesis that genes related to resistance will be mutated in multiple clones. Two genes contained acquired variants in at least 3 of the 15 selected clones: TERT, mutated in 3 of 15 clones, and NVL, mutated in all 15 clones. […] In sum, 57 out of 59 unique clones harbored NVL mutations. The majority of mutations clustered within the D1 AAA+ ATPase domain and frequently affecting the same codons. […]
# as §1, with “72 hours after transfection, cells were selected by MM017 treatment.” left out
# Cell viability assay: In 96-well assay plates (Corning #2903), 2,000 cells were plated per well in 100 μL of medium and allowed to adhere overnight. […] Luminescence (CellTiter-Glo) was recorded using a Synergy 2 microplate reader (BioTek). […]
# iHCT116 cells = experiment: Growth inhibition of engineered iHCT116 cells; assay type: cell-based; conditions: Homo sapiens
# Text: We recently described an isogenic forward genetic system to rapidly find mutations conferring resistance to compounds with anti-proliferative activity (32). This system uses an engineered colorectal cancer HCT116 cell line (iHCT116) in which the addition of indole acetic acid (IAA) initiates a ubiquitin-mediated degradation of the DNA mismatch repair protein MLH1, thereby providing a mechanism to temporarily increase mutation rates. We applied this strategy to MM017, a dibenzothiazepinone identified in a high-throughput small molecule screen for HCT116 cytotoxicity. […] We exposed barcoded iHCT116 cells, that had previously been cultured either with (Mutagenesis-on) or without IAA (Mutagenesis-off), to increasingly lethal doses of MM017.
# T1 sequence (Q9DBY8 whole entry): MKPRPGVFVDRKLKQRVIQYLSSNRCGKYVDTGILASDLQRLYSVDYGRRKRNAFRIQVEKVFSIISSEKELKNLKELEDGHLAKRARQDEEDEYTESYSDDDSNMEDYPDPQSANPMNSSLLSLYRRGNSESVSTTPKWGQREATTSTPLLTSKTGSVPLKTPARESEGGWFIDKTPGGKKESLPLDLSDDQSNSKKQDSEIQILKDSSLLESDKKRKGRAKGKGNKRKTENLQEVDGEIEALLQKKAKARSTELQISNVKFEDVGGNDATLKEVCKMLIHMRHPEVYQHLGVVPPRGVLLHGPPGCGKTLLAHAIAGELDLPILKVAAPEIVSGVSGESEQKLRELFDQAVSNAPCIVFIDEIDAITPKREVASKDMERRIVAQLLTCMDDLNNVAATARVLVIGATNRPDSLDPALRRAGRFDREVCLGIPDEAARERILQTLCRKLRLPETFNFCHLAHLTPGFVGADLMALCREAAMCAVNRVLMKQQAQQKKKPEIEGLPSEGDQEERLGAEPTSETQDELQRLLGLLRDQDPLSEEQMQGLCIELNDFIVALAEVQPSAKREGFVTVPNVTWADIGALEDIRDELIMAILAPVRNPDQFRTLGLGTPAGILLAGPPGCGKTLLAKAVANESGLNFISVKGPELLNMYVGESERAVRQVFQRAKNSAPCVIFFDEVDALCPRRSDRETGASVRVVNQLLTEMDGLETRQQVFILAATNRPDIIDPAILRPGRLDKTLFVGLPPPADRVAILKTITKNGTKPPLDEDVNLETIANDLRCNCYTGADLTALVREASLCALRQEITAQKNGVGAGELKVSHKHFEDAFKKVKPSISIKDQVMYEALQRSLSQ
SMILES,"body weight, red and white blood cells, hemoglobin, platelets, alanine transaminase, blood urea nitrogen versus vehicle [1]",overt toxicity [1],potency relative to parent compound MM017 (HCT116 cells; HCT116 proliferation),"IC50 (HCT116 cells; read-out: IC50, HCT116 proliferation)",resistance of NVL^P307T cells (HCT116 NVL^P307T cells),IC50 (HCT116 NVL^P307T cells),IC50 (mouse NVL),IC50 (HCT116 NVL^H304R cells),IC50 (iHCT116 cells),"IC50 (HCT116 cells; NVL^WT, read-out: IC50)"
"CC#CCN1C(=O)c2ccc(F)cc2Sc2cc(NC(=O)c3ccc4oc(=O)n(C)c4c3)ccc21 [MM927, N-(10-(But-2-yn-1-yl)-3-fluoro-11-oxo-10,11-dihydrodibenzo[b,f][1,4]thiazepin-7-yl)-3-methyl-2-oxo-2,3-dihydrobenzo[d]oxazole-5-carboxamide]",no significant difference,no signs of overt toxicity,five times more potent,79 nM,relatively resistant,1670 nM,207 nM,–,–,–
COCCN1C(=O)c2ccccc2Sc2cc(NC(=O)c3ccoc3)ccc21 [MM017],–,–,–,–,comparatively resistant,> 50000 nM,–,2400 nM,460 nM,380 nM
